23 molecules from patent US20220204476A1, “RNA VIRUS INHIBITOR COMPOUNDS AND USES THEREOF” (The Governors of the University of Alberta, priority 2020, published 2022) can be followed below.

Read-outs that look alike come from different tables or passages of the source.

One assay concerns SARS-CoV-2. The experiment in a line: SARS-CoV-2 in vitro plaque reduction assay in Vero E6 cells. Format: cell-based. To be noted: plaques counted after 48 h, >5 μM = did not reduce plaque numbers by half at 10 μM, read-out: SARS-CoV-2 Antiviral EC50.
The next assay deals with SARS-CoV-2 3CLP (Severe acute respiratory syndrome coronavirus 2, UniProt P0DTD1). As to the kind of experiment: SARS-CoV-2 3CLP inhibition, FRET-based cleavage assay. To be noted: 100 μM substrate, 37° C., 10 min incubation, pH 7.8. The class given is biochemical.
Where [1] appears, read: Severe acute respiratory syndrome coronavirus 2, Vero C1008, MOI 0.0001 pfu/cell.
Where [2] appears, read: 80 nM SARS-CoV-2 3CLP, read-out: 3CL Protease IC50.
Where [3] appears, read: 3CL Protease IC50, 80 nM SARS-CoV-2 3CLP.

The EC50 is the concentration needed to bring the measured effect to its halfway point. In general, IC50 refers to the concentration that gives 50% inhibition.

On to `CC(C)C[C@H](NCC1Cc2ccccc2O1)C(=O)N[C@H](C#N)C[C@@H]1CCCNC1=O` (single isomer, unassigned) [Compound 96], for which the EC50 with SARS-CoV-2 (setting [1]) was more than 5000 nM. The IC50 at SARS-CoV-2 3CLP (setting [2]) was determined as 46000 nM.
For `CC(C)C[C@H](NCC1Cc2ccccc2O1)C(=O)N[C@H](C#N)C[C@@H]1CCCNC1=O` (single isomer, unassigned) [Compound 97], in the assay with SARS-CoV-2 (MOI 0.0001 pfu/cell), the EC50 is more than 5000 nM. Further, the IC50 at SARS-CoV-2 3CLP (setting [2]) was more than 500000 nM.
As for `COc1cccc2[nH]c(C(=O)N[C@@H](CC(C)C)C(=O)N[C@@H](C[C@@H]3CCCNC3=O)C(=O)COC(=O)C(C)(C)C)cc12` [Compound 1, (3S)-3-{[N-(4-methoxy-1H-indole-2-carbonyl)-L-leucyl]amino}-2-oxo-4-[(3S)-2-oxopiperidin-3-yl]butyl 2,2-dimethylpropanoate], the EC50 in the assay with SARS-CoV-2 (setting [1]) was more than 5000 nM. Also, the IC50 on SARS-CoV-2 3CLP (setting [2]) was determined as 64 nM.
The matching figures for `COc1cccc2[nH]c(C(=O)N[C@@H](CC(C)C)C(=O)N[C@@H](C[C@@H]3CCCNC3=O)C(=O)COC(=O)c3ccccc3)cc12` [Compound 2, (3S)-3-{[N-(4-methoxy-1H-indole-2-carbonyl)-L-leucyl]amino}-2-oxo-4-[(3S)-2-oxopiperidin-3-yl]butyl benzoate]: more than 5000 nM and 64 nM.
For `COc1cccc2[nH]c(C(=O)N[C@@H](CC(C)C)C(=O)N[C@@H](C[C@@H]3CCCNC3=O)C(=O)COC(=O)c3ccccn3)cc12` [Compound 3, (3S)-3-{[N-(4-methoxy-1H-indole-2-carbonyl)-L-leucyl]amino}-2-oxo-4-[(3S)-2-oxopiperidin-3-yl]butyl pyridine-2-carboxylate], in the assay with SARS-CoV-2 (setting [1]), the EC50 is more than 5000 nM. This molecule came in with an IC50 against SARS-CoV-2 3CLP (setting [3]) of 130 nM.
Consider `COc1cccc2[nH]c(C(=O)N[C@@H](CC(C)C)C(=O)N[C@@H](C[C@@H]3CCCNC3=O)C(=O)COC(=O)c3cccnc3)cc12` [Compound 4, (3S)-3-{[N-(4-methoxy-1H-indole-2-carbonyl)-L-leucyl]amino}-2-oxo-4-[(3S)-2-oxopiperidin-3-yl]butyl pyridine-3-carboxylate], for which the EC50 in the assay with SARS-CoV-2 (setting [1]) is more than 5000 nM. The IC50 on SARS-CoV-2 3CLP (setting [2]) is 4 nM.
`COc1cccc2[nH]c(C(=O)N[C@@H](CC(C)C)C(=O)N[C@@H](C[C@@H]3CCCNC3=O)C(=O)COC(=O)c3c(F)c(F)c(F)c(F)c3F)cc12` [Compound 7, (3S)-3-{[N-(4-methoxy-1H-indole-2-carbonyl)-L-leucyl]amino}-2-oxo-4-[(3S)-2-oxopiperidin-3-yl]butyl pentafluorobenzoate]: in the assay with SARS-CoV-2 (setting [1]), the EC50 was more than 5000 nM.
On to `COc1cccc2[nH]c(C(=O)N[C@@H](CC(C)C)C(=O)N[C@@H](C[C@@H]3CCCNC3=O)C(=O)COC(=O)c3ccncc3)cc12` [Compound 8, (3S)-3-{[N-(4-methoxy-1H-indole-2-carbonyl)-L-leucyl]amino}-2-oxo-4-[(3S)-2-oxopiperidin-3-yl]butyl pyridine-4-carboxylate], for which the EC50 in the assay with SARS-CoV-2 (setting [1]) is more than 5000 nM.
Consider `COc1cccc2[nH]c(C(=O)N[C@@H](CC(C)C)C(=O)N[C@@H](C[C@@H]3CCCNC3=O)C(=O)COC(=O)C3(C)COC(C)(C)OC3)cc12` [Compound 9, (3S)-3-{[N-(4-methoxy-1H-indole-2-carbonyl)-L-leucyl]amino}-2-oxo-4-[(3S)-2-oxopiperidin-3-yl]butyl 2,2,5-trimethyl-1,3-dioxane-5-carboxylate], for which the EC50 in the assay with SARS-CoV-2 (setting [1]) was more than 5000 nM. The IC50 at SARS-CoV-2 3CLP (setting [2]) came out at 55 nM.
In the case of `COc1cccc2[nH]c(C(=O)N[C@@H](CC(C)C)C(=O)N[C@@H](C[C@@H]3CCCNC3=O)C(=O)COC(=O)c3cccnc3C(F)(F)F)cc12` [Compound 10, (3S)-3-{[N-(4-methoxy-1H-indole-2-carbonyl)-L-leucyl]amino}-2-oxo-4-[(3S)-2-oxopiperidin-3-yl]butyl 2-(trifluoromethyl)pyridine-3-carboxylate], the EC50 in the assay with SARS-CoV-2 (setting [1]) was more than 5000 nM. Moreover, the IC50 on SARS-CoV-2 3CLP (setting [2]) amounted to 52 nM.
As to `COc1cccc2[nH]c(C(=O)N[C@@H](CC(C)C)C(=O)N[C@@H](C[C@@H]3CCCNC3=O)C(=O)COC(=O)c3ccc(C(C)(C)C)nc3)cc12` [Compound 11, (3S)-3-{[N-(4-methoxy-1H-indole-2-carbonyl)-L-leucyl]amino}-2-oxo-4-[(3S)-2-oxopiperidin-3-yl]butyl 6-tert-butylpyridine-3-carboxylate], the EC50 in the assay on SARS-CoV-2 (setting [1]) is more than 5000 nM. The IC50 at SARS-CoV-2 3CLP (setting [2]) is 19 nM.
On to `COc1cccc2[nH]c(C(=O)N[C@@H](CC(C)C)C(=O)N[C@@H](C[C@@H]3CCCNC3=O)C(=O)COC(=O)C3(C#N)CC3)cc12` [Compound 12, (3S)-3-{[N-(4-methoxy-1H-indole-2-carbonyl)-L-leucyl]amino}-2-oxo-4-[(3S)-2-oxopiperidin-3-yl]butyl 1-cyanocyclopropane-1-carboxylate], for which the EC50 in the assay on SARS-CoV-2 (setting [1]) was more than 5000 nM. Moreover, the IC50 at SARS-CoV-2 3CLP (setting [2]) worked out at 16 nM.
Take `COc1cccc2[nH]c(C(=O)N[C@@H](CC(C)C)C(=O)N[C@@H](C[C@@H]3CCCNC3=O)C(=O)COC(=O)C(C)(C)C#N)cc12` [Compound 14, (3S)-3-{[N-(4-methoxy-1H-indole-2-carbonyl)-L-leucyl]amino}-2-oxo-4-[(3S)-2-oxopiperidin-3-yl]butyl 2-cyano-2-methylpropanoate]: the EC50 in the assay on SARS-CoV-2 (setting [1]) was more than 5000 nM. Besides, at SARS-CoV-2 3CLP (setting [2]), the IC50 turned out to be 22 nM.
With `COc1cccc2[nH]c(C(=O)N[C@@H](CC(C)C)C(=O)N[C@@H](C[C@@H]3CCCNC3=O)C(=O)COC(=O)C3(C(F)(F)F)CC3)cc12` [Compound 15, (3S)-3-{[N-(4-methoxy-1H-indole-2-carbonyl)-L-leucyl]amino}-2-oxo-4-[(3S)-2-oxopiperidin-3-yl]butyl 1-(trifluoromethyl)cyclopropane-1-carboxylate], the EC50 in the assay on SARS-CoV-2 (setting [1]) was more than 5000 nM. The IC50 at SARS-CoV-2 3CLP (setting [2]) stood at 41 nM.
`COc1cccc2[nH]c(C(=O)N[C@@H](CC(C)C)C(=O)N[C@@H](C[C@@H]3CCCNC3=O)C(=O)COC(=O)C3(C)OCCCO3)cc12` [Compound 16, (3S)-3-{[N-(4-methoxy-1H-indole-2-carbonyl)-L-leucyl]amino}-2-oxo-4-[(3S)-2-oxopiperidin-3-yl]butyl 2-methyl-1,3-dioxane-2-carboxylate]: the EC50 with SARS-CoV-2 (setting [1]) is more than 5000 nM. In addition, the IC50 on SARS-CoV-2 3CLP (setting [3]) is 13 nM.
In the case of `CC(C)C[C@H](NC(=O)C1CCCC1)C(=O)N[C@@H](C[C@@H]1CCCNC1=O)C(=O)COC(=O)c1cccnc1` [Compound 17, (3S)-3-{[N-(cyclopentanecarbonyl)-L-leucyl]amino}-2-oxo-4-[(3S)-2-oxopiperidin-3-yl]butyl pyridine-3-carboxylate], in the assay with SARS-CoV-2 (setting [1]), the EC50 is more than 5000 nM. The IC50 on SARS-CoV-2 3CLP (setting [2]) was found to be 4990 nM.
Taken in the same sequence, the figures for `COc1cccc2[nH]c(C(=O)N[C@@H](CC(C)C)C(=O)N[C@@H](C[C@@H]3CCCNC3=O)C(=O)COC(=O)C3(C#N)CCCC3)cc12` [Compound 19, (3S)-3-{[N-(4-methoxy-1H-indole-2-carbonyl)-L-leucyl]amino}-2-oxo-4-[(3S)-2-oxopiperidin-3-yl]butyl 1-cyanocyclopentane-1-carboxylate] were more than 5000 nM and 26 nM.
As for `COc1cccc2[nH]c(C(=O)N[C@@H](CC(C)C)C(=O)N[C@@H](C[C@@H]3CCCNC3=O)C(=O)COC(=O)C3(C(F)(F)F)CCCCC3)cc12` [Compound 20, (3S)-3-{[N-(4-methoxy-1H-indole-2-carbonyl)-L-leucyl]amino}-2-oxo-4-[(3S)-2-oxopiperidin-3-yl]butyl 1-(trifluoromethyl)cyclohexane-1-carboxylate], the EC50 in the assay on SARS-CoV-2 (setting [1]) worked out at 710 nM. In addition, the IC50 on SARS-CoV-2 3CLP (setting [2]) stood at 86 nM.
`COc1cccc2[nH]c(C(=O)N[C@@H](CC(C)C)C(=O)N[C@@H](C[C@@H]3CCCNC3=O)C(=O)COC(=O)c3c(C)cc(C)nc3C)cc12` [Compound 23, (3S)-3-{[N-(4-methoxy-1H-indole-2-carbonyl)-L-leucyl]amino}-2-oxo-4-[(3S)-2-oxopiperidin-3-yl]butyl 2,4,6-trimethylpyridine-3-carboxylate] came in with an IC50 at SARS-CoV-2 3CLP (setting [3]) of 36 nM.
With `COc1cccc2[nH]c(C(=O)N[C@@H](CC(C)C)C(=O)N[C@H](C#N)C[C@@H]3CCNC3=O)cc12` [Compound 24, N-[(2S)-1-({(1S)-1-cyano-2-[(3S)-2-oxopyrrolidin-3-yl]ethyl}amino)-4-methyl-1-oxopentan-2-yl]-4-methoxy-1H-indole-2-carboxamide], in the assay with SARS-CoV-2 (setting [1]), the EC50 was more than 5000 nM.
For the molecule `COc1cccc2[nH]c(C(=O)N[C@@H](CC(C)C)C(=O)N[C@@H](C[C@@H]3CCNC3=O)C(=O)COC(=O)c3c(C(F)(F)F)cc(C)nc3C)cc12` [Compound 26, (3S)-3-{[N-(4-methoxy-1H-indole-2-carbonyl)-L-leucyl]amino}-2-oxo-4-[(3S)-2-oxopyrrolidin-3-yl]butyl 2,6-dimethyl-4-(trifluoromethyl)pyridine-3-carboxylate], on SARS-CoV-2 3CLP (setting [2]), the IC50 is 17 nM.
Still for that read-out and setting: as for `COc1cccc2[nH]c(C(=O)N[C@@H](CC(C)C)C(=O)N[C@@H](C[C@@H]3CCCNC3=O)C(=O)COC(=O)c3c(C)nc(C)nc3C)cc12` [Compound 72, 3-{[N-(4-methoxy-1H-indole-2-carbonyl)leucyl]amino}-2-oxo-4-(2-oxopiperidin-3-yl)butyl 2,4,6-trimethylpyrimidine-5-carboxylate], the figure is 22 nM.
As for `[2H]C1([2H])CC[C@@H](C[C@@H](C#N)NC(=O)[C@H](CC(C)(C)C)NC(=O)c2cc3c(OC)cccc3[nH]2)C(=O)N1` [Compound 104, N-[(2S)-1-({(1S)-1-cyano-2-[(3S)-2-oxo(6,6-d2)piperidin-3-yl]ethyl}amino)-4,4-dimethyl-1-oxopentan-2-yl]-4-methoxy-1H-indole-2-carboxamide], the 50% effective concentration (EC50) with SARS-CoV-2 (setting [1]) is more than 5000 nM.
